Measurements published in US20090047701A1, “METHOD FOR SCREENING ANTIFUNGAL AGENTS” (STICHTING VOOR DE TECHNISCHE, priority 2004, published 2009).

What was measured:
Assay type in all cases: cell-based, Aspergillus niger
ΔrlmA strain = experiment: microtiter plate based growth assay: sensitivity of the ΔrlmA strain versus wild-type (N402); conditions: spores in Complete medium, 37° C., 96-well plates, various concentrations, ΔrlmA vs N402 (FIG. 4)
Description: Sensitivity of the ΔrlmA strain towards different compounds. Growth curves of wild-type (N402) and ΔrlmA strains. Spores were grown in Complete medium for 24 hrs at 37° C. in the presence of various concentrations of antifungals. Data are represented as the mean and standard error of the mean obtained from four replicates. The dotted line with open squares represents the growth curve of the rlmA deletion strain and the solid line with closed circles represent the parental (N402) strain.
Sensitivity towards various compounds was assayed in 96-well microtiter plates (Nunc, art. 164588) using a Perkin Elmer HTS-7000 Bioassay reader. A series of concentrations of stress-inducing compounds (CFW, Caspofungin, Hydrogen-peroxide, SDS) were prepared in 100 μl milliq in a 96-well plate, and 100 μl spore solution (˜2×10^4 spores) in 2× complete medium was added to 100 μl stress-inducing solution. The microtiter plates were incubated at 37° C. and the OD590 was measured every 2 hours.
The sensitivity of the wild-type and the ΔrlmA strain towards various compounds was also measured by determining fungal growth in a microtiter plate based growth assay.

agsA [1] = experiment: Northern analysis of agsA expression after CFW-induced cell wall stress, wild-type strain (N402); conditions: wild-type N402 germlings, 200 μg/ml CFW, RNA at 0, 15, 30, 45 and 60 minutes (FIG. 3)
Description: (§1) Cell wall integrity response in the wild-type (N402) and the ΔrlmA strain. Northern analysis of the agsA, and 18S messenger levels. Strains were grown in shake flask until small germ tubes were formed. Subsequently CFW (+) or an equal volume of water (−) was added to the cultures. RNA was extracted at the timepoints indicated above the Northerns, t=time in minutes. The probes used; for agsA a ˜0.6 kb EcoRI agsA fragment was isolated from pGEMT-agsA (Damveld et al, unpublished vector); the 18S ribosomal probe was isolated as a 2 kb BglI fragment from pMN1 (Borsuk et al., 1982 Gene 17, 147-152.)
(§2) Chromosomal DNA of A. niger was isolated as described by Kolar (Kolar et al., 1988, Gene 62, 127-134). Alternatively, chromosomal DNA was isolated using the FastPrep FP120 (Bio101). First, A. niger spores were grown in Fast-prep tubes containing 1 ml CM and 0.3 gram acid washed glass beads. […] Sequencing was carried out with a Perkin Elmer ABI PRISM 310 sequencer using the ABI prism Big Dye Terminator Cycle Sequencing Ready Reaction Kit (Applied Biosystems). […]
(§3) To determine the role of A. niger RlmA in the activation of agsA in response to cell wall stress, the expression of agsA was analysed in both the wild-type strain (N402) and the rlmA deletion strain (ΔrlmA) after CFW treatment. […]

agsA [2] = experiment: Northern analysis of agsA expression after CFW-induced cell wall stress, rlmA deletion strain (ΔrlmA); conditions: ΔrlmA germlings, 200 μg/ml CFW, RNA at 0, 15, 30, 45 and 60 minutes (FIG. 3)
Description: as §1, §2, §3

Molecule | Sensitivity of the ΔrlmA strain towards the compound in comparison to the wild-type strain (fungal growth, OD590) (ΔrlmA strain) | expression level of the agsA gene after CFW addition (agsA [1]) | agsA mRNA in the ΔrlmA strain after treatment with CFW (agsA [2])
CC[C@H](C)C[C@H](C)CCCCCCCCC(=O)N[C@H]1C[C@@H](O)[C@@H](NCCN)NC(=O)[C@@H]2[C@@H](O)CCN2C(=O)[C@H]([C@H](O)CCN)NC(=O)[C@H]([C@H](O)[C@@H](O)c2ccc(O)cc2)NC(=O)[C@@H]2C[C@@H](O)CN2C(=O)[C@H]([C@@H](C)O)NC1=O [Caspofungin] | slightly, but reproducible enhanced | – | –
CCCCNC(=O)n1c(NC(=O)OC)nc2ccccc21 [benomyl] | slightly, but reproducible enhanced | – | –
OO [H2O2, Hydrogen-peroxide] | no hypersensitive phenotype | – | –
O=S(=O)(O)c1cc(Nc2nc(Nc3ccccc3)nc(N(CCO)CCO)n2)ccc1/C=C/c1ccc(Nc2nc(Nc3ccccc3)nc(N(CCO)CCO)n2)cc1S(=O)(=O)O [CFW, Calcofluor White] | hypersensitive phenotype | already induced 15 minutes after CFW addition | no agsA mRNA could be detected
tunicamycin | slightly, but reproducible enhanced | – | –
CCCCCCCCCCCCOS(=O)(=O)[O-].[Na+] [SDS] | hypersensitive phenotype | – | –
